According to patent US20200190087A1 (priority 2016, published 2020):
Like-named read-outs stand apart in the source and are kept apart here.

Experiments:
human μ-opioid receptor = biological target: T1, human μ-opioid receptor (Homo sapiens, UniProt P35372); assay: Human μ-opioid receptor radioligand assay ([3H]-DAMGO); format: binding
T1 construct: expressed in transfected cells; host or cells: CHO-K1
Method: Human μ-Opioid Receptor Radioligand Assay
To investigate binding properties of test compounds to human μ-opioid receptor, transfected CHO-K1 cell membranes and [^3H]-DAMGO (Perkin Elmer, ES-542-C), as the radioligand, were used. The assay was carried out with 20 μg of membrane suspension, 1 nM of [^3H]-DAMGO in either absence or presence of either buffer or 10 μM Naloxone for total and non-specific binding, respectively. Binding buffer contained Tris-HCl 50 mM, MgCl2 5 mM at pH 7.4. Plates were incubated at 27° C. for 60 minutes. After the incubation period, the reaction mix was then transferred to MultiScreen HTS, FC plates (Millipore), filtered and plates were washed 3 times with ice-cold 10 mM Tris-HCL (pH 7.4). Filters were dried and counted at approximately 40% efficiency in a MicroBeta scintillation counter (Perkin-Elmer) using EcoScint liquid scintillation cocktail. Preferably, transfected CHO-K1 cell membranes (20 μg) were incubated with 1 nM of [^3H]-DAMGO in assay buffer containing Tris-HCl 50 mM, MgCl2 5 mM at pH 7.4. NBS (non-specific binding) was measured by adding 10 μM Naloxone. The binding of the test compound was measured at five different concentrations. Plates were incubated at 27° C. for 60 minutes. After the incubation period, the reaction mix was then transferred to MultiScreen HTS, FC plates (Millipore), filtered and plates were washed 3 times with ice-cold 10 mM Tris-HCL (pH 7.4). Filters were dried and counted at approximately 40% efficiency in a MicroBeta scintillation counter (Perkin-Elmer) using EcoScint liquid scintillation cocktail.

[1] = biological target: Human α2δ-1 subunit of Cav2.2 calcium channel (Homo sapiens, UniProt P54289); assay: Human α2δ-1 subunit of Cav2.2 calcium channel assay ([3H]-Gabapentin binding); settings: human α2δ-1 enriched membranes, 15 nM [3H]-Gabapentin, binding expressed as Ki; read-out: α2δ1 binding activity
Method: Human α2δ-1 Subunit of Cav2.2 Calcium Channel Assay
Human α2δ-1 enriched membranes (2.5 μg) were incubated with 15 nM of radiolabeled [3H]-Gabapentin in assay buffer containing Hepes-KOH 10 mM, pH 7.4. NSB (non specific binding) was measured by adding 10 μM pregabalin. The binding of the test compound was measured at five different concentrations. After 60 min incubation at 27° C., binding reaction was terminated by filtering through Multiscreen GF/C (Millipore) presoaked in 0.5% polyethyleneimine in Vacuum Manifold Station, followed by 3 washes with ice-cold filtration buffer containing 50 mM Tris-HCl, pH 7.4. Filter plates were dried at 60° C. for 1 hour and 30 μl of scintillation cocktail were added to each well before radioactivity reading. Readings were performed in a Trilux 1450 Microbeta radioactive counter (Perkin Elmer).

[2] = transfected CHO-K1 cell membranes, 1 nM [3H]-DAMGO, binding expressed as Ki, read-out: Mu binding activity

Sequence of Human α2δ-1 subunit of Cav2.2 calcium channel (P54289 25-1103): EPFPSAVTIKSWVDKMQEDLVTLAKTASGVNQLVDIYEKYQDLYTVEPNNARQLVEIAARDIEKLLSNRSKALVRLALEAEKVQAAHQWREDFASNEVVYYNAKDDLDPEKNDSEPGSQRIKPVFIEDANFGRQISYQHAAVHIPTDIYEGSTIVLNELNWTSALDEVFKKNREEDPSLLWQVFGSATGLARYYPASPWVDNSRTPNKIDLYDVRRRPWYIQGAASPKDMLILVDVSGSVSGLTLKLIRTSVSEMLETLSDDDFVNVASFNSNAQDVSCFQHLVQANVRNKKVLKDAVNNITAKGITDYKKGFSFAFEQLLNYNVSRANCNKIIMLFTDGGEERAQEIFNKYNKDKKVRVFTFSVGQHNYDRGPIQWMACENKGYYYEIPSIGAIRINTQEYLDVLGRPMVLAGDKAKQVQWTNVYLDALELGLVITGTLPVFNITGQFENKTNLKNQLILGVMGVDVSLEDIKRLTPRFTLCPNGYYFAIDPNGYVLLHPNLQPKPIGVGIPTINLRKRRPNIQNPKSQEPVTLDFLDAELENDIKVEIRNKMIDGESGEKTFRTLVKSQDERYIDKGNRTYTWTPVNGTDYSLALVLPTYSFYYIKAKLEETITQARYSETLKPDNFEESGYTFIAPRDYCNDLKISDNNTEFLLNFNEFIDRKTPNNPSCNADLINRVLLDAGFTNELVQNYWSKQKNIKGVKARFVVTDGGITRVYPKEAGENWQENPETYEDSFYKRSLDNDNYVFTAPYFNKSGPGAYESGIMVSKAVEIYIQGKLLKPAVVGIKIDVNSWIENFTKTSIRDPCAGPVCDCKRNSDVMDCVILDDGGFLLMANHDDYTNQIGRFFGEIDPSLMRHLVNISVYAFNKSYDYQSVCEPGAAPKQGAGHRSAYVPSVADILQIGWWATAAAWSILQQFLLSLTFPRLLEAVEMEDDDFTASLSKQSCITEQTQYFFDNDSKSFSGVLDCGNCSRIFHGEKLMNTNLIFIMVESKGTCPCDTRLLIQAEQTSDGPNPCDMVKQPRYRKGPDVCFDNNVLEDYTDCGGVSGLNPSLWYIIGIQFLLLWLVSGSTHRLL
T1 sequence (P35372 whole entry): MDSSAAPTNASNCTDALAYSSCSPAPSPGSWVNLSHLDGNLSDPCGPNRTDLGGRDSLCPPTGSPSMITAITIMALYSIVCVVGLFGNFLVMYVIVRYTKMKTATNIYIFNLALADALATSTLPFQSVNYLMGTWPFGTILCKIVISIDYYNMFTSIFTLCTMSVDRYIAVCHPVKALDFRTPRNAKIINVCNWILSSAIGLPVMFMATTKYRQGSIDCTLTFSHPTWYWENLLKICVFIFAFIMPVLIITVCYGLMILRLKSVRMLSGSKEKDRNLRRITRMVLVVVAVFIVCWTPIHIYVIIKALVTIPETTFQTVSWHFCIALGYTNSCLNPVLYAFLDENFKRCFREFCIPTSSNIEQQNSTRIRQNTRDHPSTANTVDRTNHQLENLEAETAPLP

Structure (SMILES) | Ki (human μ-opioid receptor; [2]) [nM] | Ki [1] [nM] | Ki (human μ-opioid receptor) [nM]
CCOc1ccc(-n2nc3c(C4=CCN(C(=O)OC(C)(C)C)CC4)nnc(C)c3c2C)c(F)c1 [Ex 1, tert-Butyl 4-(2-(4-ethoxy-2-fluorophenyl)-3,4-dimethyl-2H-pyrazolo[3,4-d]pyridazin-7-yl)-3,6-dihydropyridine-1(2H)-carboxylate] | > 500 | ≥ 5000 | 
CCOc1ccc(-n2nc3c(C4=CCN(C)CC4)nnc(C)c3c2C)c(F)c1 [Ex 2, 2-(4-Ethoxy-2-fluorophenyl)-3,4-dimethyl-7-(1-methyl-1,2,3,6-tetrahydropyridin-4-yl)-2H-pyrazolo[3,4-d]pyridazine] | > 500 | ≥ 5000 | 
CCOc1ccc(-n2nc3c(C4=CN(C(=O)OC(C)(C)C)CCC4)nnc(C)c3c2C)c(F)c1 [Ex 3, tert-Butyl 5-(2-(4-ethoxy-2-fluorophenyl)-3,4-dimethyl-2H-pyrazolo[3,4-d]pyridazin-7-yl)-3,4-dihydropyridine-1(2H)-carboxylate] | > 500 | ≥ 5000 | 
CCOc1ccc(-n2nc3c(/C=C/CNC(=O)OC(C)(C)C)nnc(C)c3c2C)c(F)c1 [Ex 4, tert-Butyl (E)-(3-(2-(4-ethoxy-2-fluorophenyl)-3,4-dimethyl-2H-pyrazolo[3,4-d]pyridazin-7-yl)allyl)carbamate] | > 500 | ≥ 5000 | 
CCOc1ccc(-n2nc3c(/C=C/CN(C)C(=O)OC(C)(C)C)nnc(C)c3c2C)c(F)c1 [Ex 5, tert-Butyl (E)-(3-(2-(4-ethoxy-2-fluorophenyl)-3,4-dimethyl-2H-pyrazolo[3,4-d]pyridazin-7-yl)allyl)(methyl)carbamate] | > 500 | ≥ 5000 | 
CCOc1ccc(-n2nc3c(-c4ccc(CN(C)C)cc4)nnc(C)c3c2C)c(F)c1 [Ex 6, 1-(4-(2-(4-Ethoxy-2-fluorophenyl)-3,4-dimethyl-2H-pyrazolo[3,4-d]pyridazin-7-yl)phenyl)-N,N-dimethylmethanamine] | > 500 | 500 to 3000 | 
CCOc1ccc(-n2nc3c(-c4ccc(CCN(C)C)cc4)nnc(C)c3c2C)c(F)c1 [Ex 7, 2-(4-(2-(4-Ethoxy-2-fluorophenyl)-3,4-dimethyl-2H-pyrazolo[3,4-d]pyridazin-7-yl)phenyl)-N,N-dimethylethan-1-amine] | > 500 | 500 to 3000 | 
CCOc1ccc(-n2nc3c(-c4cccc(CN(C)C)c4)nnc(C)c3c2C)c(F)c1 [Ex 8, 1-(3-(2-(4-Ethoxy-2-fluorophenyl)-3,4-dimethyl-2H-pyrazolo[3,4-d]pyridazin-7-yl)phenyl)-N,N-dimethylmethanamine] | > 500 | 500 to 3000 | 
CCOc1ccc(-n2nc3c(-c4cccc(CCN(C)C)c4)nnc(C)c3c2C)c(F)c1 [Ex 9, 2-(3-(2-(4-Ethoxy-2-fluorophenyl)-3,4-dimethyl-2H-pyrazolo[3,4-d]pyridazin-7-yl)phenyl)-N,N-dimethylethan-1-amine] | > 500 | 500 to 3000 | 
CCOc1ccc(-n2nc3c(-c4ccc5ncn(CCN(C)C)c5c4)nnc(C)c3c2C)c(F)c1 [Ex 10, 2-(6-(2-(4-Ethoxy-2-fluorophenyl)-3,4-dimethyl-2H-pyrazolo[3,4-d]pyridazin-7-yl)-1H-benzo[d]imidazol-1-yl)-N,N-dimethylethan-1-amine] | > 500 | 3000 to 5000 | 
CCOc1ccc(-n2nc3c(-c4ccc5ncn(CCNC(=O)OC(C)(C)C)c5c4)nnc(C)c3c2C)c(F)c1 [Ex 11, tert-butyl (2-(6-(2-(4-ethoxy-2-fluorophenyl)-3,4-dimethyl-2H-pyrazolo[3,4-d]pyridazin-7-yl)-1H-benzo[d]imidazol-1-yl)ethyl)carbamate] | > 500 | > 5000 | 
CCOc1ccc(-n2nc3c(C4CN(C(=O)OC(C)(C)C)C4)nnc(C)c3c2C)c(F)c1 [Ex 12, tert-Butyl 3-(2-(4-ethoxy-2-fluorophenyl)-3,4-dimethyl-2H-pyrazolo[3,4-d]pyridazin-7-yl)azetidine-1-carboxylate] | > 500 | ≥ 5000 | 
CCOc1ccc(-n2nc3c(C4CCN(C(=O)OC(C)(C)C)CC4)nnc(C)c3c2C)c(F)c1 [Ex 13, tert-Butyl 4-(2-(4-ethoxy-2-fluorophenyl)-3,4-dimethyl-2H-pyrazolo[3,4-d]pyridazin-7-yl)piperidine-1-carboxylate] | > 500 | ≥ 5000 | 
CCOc1ccc(-n2nc3c(C4CCN(C)CC4)nnc(C)c3c2C)c(F)c1 [Ex 14, 2-(4-Ethoxy-2-fluorophenyl)-3,4-dimethyl-7-(1-methylpiperidin-4-yl)-2H-pyrazolo[3,4-d]pyridazine] | > 500 | 500 to 3000 | 
CCOc1ccc(-n2nc3c(C4CCCN(C(=O)OC(C)(C)C)C4)nnc(C)c3c2C)c(F)c1 (stereo not drawn) [Ex 15, tert-Butyl-3-(2-(4-ethoxy-2-fluorophenyl)-3,4-dimethyl-2H-pyrazolo[3,4-d]pyridazin-7-yl)piperidine-1-carboxylate] | > 500 | ≥ 5000 | 
CCOc1ccc(-n2nc3c(CCCNC(=O)OC(C)(C)C)nnc(C)c3c2C)c(F)c1 [Ex 16, tert-Butyl-(3-(2-(4-ethoxy-2-fluorophenyl)-3,4-dimethyl-2H-pyrazolo[3,4-d]pyridazin-7-yl)propyl)carbamate] | > 500 | ≥ 5000 | 
CCOc1ccc(-n2nc3c(CCCN(C)C(=O)OC(C)(C)C)nnc(C)c3c2C)c(F)c1 [Ex 17, tert-Butyl-(3-(2-(4-ethoxy-2-fluorophenyl)-3,4-dimethyl-2H-pyrazolo[3,4-d]pyridazin-7-yl)propyl)(methyl)carbamate] | > 500 | ≥ 5000 | 
CCOc1ccc(-n2nc3c(C4CCNCC4)nnc(C)c3c2C)c(F)c1 [Ex 18, 2-(4-Ethoxy-2-fluorophenyl)-3,4-dimethyl-7-(piperidin-4-yl)-2H-pyrazolo[3,4-d]pyridazine] | > 500 | 500 to 3000 | 
CCOc1ccc(-n2nc3c(C4CCCNC4)nnc(C)c3c2C)c(F)c1 (stereo not drawn) [Ex 19, 2-(4-Ethoxy-2-fluorophenyl)-3,4-dimethyl-7-(piperidin-3-yl)-2H-pyrazolo[3,4-d]pyridazine] | > 500 | ≥ 5000 | 
CCOc1ccc(-n2nc3c(CCCN)nnc(C)c3c2C)c(F)c1 [Ex 20, 3-(2-(4-Ethoxy-2-fluorophenyl)-3,4-dimethyl-2H-pyrazolo[3,4-d]pyridazin-7-yl)propan-1-amine] | > 500 | 500 to 3000 | 
CCOc1ccc(-n2nc3c(CCCNC)nnc(C)c3c2C)c(F)c1 [Ex 21, 3-(2-(4-Ethoxy-2-fluorophenyl)-3,4-dimethyl-2H-pyrazolo[3,4-d]pyridazin-7-yl)-N-methylpropan-1-amine] | > 500 | ≥ 5000 | 
CCOc1ccc(-n2nc3c(C4CNC4)nnc(C)c3c2C)c(F)c1 [Ex 22, 7-(Azetidin-3-yl)-2-(4-ethoxy-2-fluorophenyl)-3,4-dimethyl-2H-pyrazolo[3,4-d]pyridazine] | > 500 | ≥ 5000 | 
CCOc1ccc(-n2nc3c(CCN)nnc(C)c3c2C)c(F)c1 [Ex 23, 2-(2-(4-Ethoxy-2-fluorophenyl)-3,4-dimethyl-2H-pyrazolo[3,4-d]pyridazin-7-yl)ethan-1-amine] | > 500 | ≥ 5000 | 
CCOc1ccc(-n2nc3c(-c4ccc5ncn(CCN)c5c4)nnc(C)c3c2C)c(F)c1 [Ex 24, 2-(6-(2-(4-Ethoxy-2-fluorophenyl)-3,4-dimethyl-2H-pyrazolo[3,4-d]pyridazin-7-yl)-1H-benzo[d]imidazol-1-yl)ethan-1-amine] | > 500 | 3000 to 5000 | 
CCOc1ccc(-n2nc3c(C4CCN(CCc5ccccc5)CC4)nnc(C)c3c2C)c(F)c1 [Ex 25, 2-(4-Ethoxy-2-fluorophenyl)-3,4-dimethyl-7-(1-phenethylpiperidin-4-yl)-2H-pyrazolo[3,4-d]pyridazine] |  | 500 to 3000 | < 500
CCOc1ccc(-n2nc3c(C4CCN(Cc5ccccc5)CC4)nnc(C)c3c2C)c(F)c1 [Ex 26, 7-(1-Benzylpiperidin-4-yl)-2-(4-ethoxy-2-fluorophenyl)-3,4-dimethyl-2H-pyrazolo[3,4-d]pyridazine] |  | < 500 | < 500
CCOc1ccc(-n2nc3c(C4CCN(Cc5ccc(F)cc5)CC4)nnc(C)c3c2C)c(F)c1 [Ex 27, 2-(4-Ethoxy-2-fluorophenyl)-7-(1-(4-fluorobenzyl)piperidin-4-yl)-3,4-dimethyl-2H-pyrazolo[3,4-d]pyridazine] | > 500 | 500 to 3000 | 
